Measured values as given in patent US8193189B2, “Quinoxaline derivatives as tyrosine kinase activity inhibitors” (Novartis AG, priority 2007, dated 2012).

Experiments:
GST-JAK1(866-1154) = target: T1, GST-JAK1(866-1154) (Homo sapiens, UniProt P23458); assay: EPK JAK-family kinases profiling assay (Caliper mobility shift), JAK1; format: biochemical; details: ATP 40 μM, 50 nM kinase
T1 construct: GST-JAK1(866-1154); made in house
Procedure, shortened: (§1)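 Turnover was read as substrate/product ratio after mobility-shift capillary-like separation of each reaction, run for 60 min at 30 °C with GST-tagged kinase domain, labelled peptide and ATP, and terminated with EDTA stop buffer.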

GST-JAK2(808-1132) = target: T2, GST-JAK2(808-1132) (Homo sapiens, UniProt O60674); assay: EPK JAK-family kinases profiling assay (Caliper mobility shift), JAK2; format: biochemical; details: ATP 20 μM, 1.8 nM kinase
T2 construct: GST-JAK2(808-1132); purchased Invitrogen (Carlsbad, USA) #4288
Procedure, shortened: as §1

GST-JAK3(811-1124) = target: T3, GST-JAK3(811-1124) (Homo sapiens, UniProt P52333); assay: EPK JAK-family kinases profiling assay (Caliper mobility shift), JAK3; format: biochemical; details: ATP 80 μM, 6 nM kinase
T3 construct: GST-JAK3(811-1124); made in house
Procedure, shortened: as §1

GST-TYK2(888-1187) = target: T4, GST-TYK2(888-1187) (Homo sapiens, UniProt P29597); assay: EPK JAK-family kinases profiling assay (Caliper mobility shift), TYK2; format: biochemical; details: ATP 30 μM, 40 nM kinase
T4 construct: GST-TYK2(888-1187); made in house
T4 sequence (P29597 888-1187): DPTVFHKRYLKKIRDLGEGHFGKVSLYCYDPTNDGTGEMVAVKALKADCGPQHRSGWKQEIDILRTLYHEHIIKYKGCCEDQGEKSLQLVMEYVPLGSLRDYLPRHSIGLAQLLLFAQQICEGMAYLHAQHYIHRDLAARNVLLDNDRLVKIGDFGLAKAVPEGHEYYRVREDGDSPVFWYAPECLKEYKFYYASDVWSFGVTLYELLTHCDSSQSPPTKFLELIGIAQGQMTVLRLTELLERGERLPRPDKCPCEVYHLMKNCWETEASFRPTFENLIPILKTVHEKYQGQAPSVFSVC
Procedure, shortened: as §1

[1] = tested on: JAK/STAT pathway (JAK1/JAK2-dependent nuclear translocation of STAT1-GFP); assay: Inhibition of the JAK/STAT pathway: IFN-γ stimulated nuclear translocation of STAT1-GFP in HT1080 fibrosarcoma cells; format: cell-based; details: Homo sapiens, HT-1080; HT1080 STAT1-GFP cells, 100 ng/ml IFN-γ 2 hours, compound added 30 min before; read-out: STAT1translo IC50
Procedure, shortened: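 HT1080 cells stably expressing STAT1-GFP, compounds added 30 min before IFN-γ stimulation at final 10 μM down to 0.003 μM (0.1% DMSO). Nuclear-cytoplasmic GFP intensity differential quantified by automated imaging with Hoechst nuclear mask, ≥1000 cells per well, averaged per well.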

T2 sequence (O60674 808-1132): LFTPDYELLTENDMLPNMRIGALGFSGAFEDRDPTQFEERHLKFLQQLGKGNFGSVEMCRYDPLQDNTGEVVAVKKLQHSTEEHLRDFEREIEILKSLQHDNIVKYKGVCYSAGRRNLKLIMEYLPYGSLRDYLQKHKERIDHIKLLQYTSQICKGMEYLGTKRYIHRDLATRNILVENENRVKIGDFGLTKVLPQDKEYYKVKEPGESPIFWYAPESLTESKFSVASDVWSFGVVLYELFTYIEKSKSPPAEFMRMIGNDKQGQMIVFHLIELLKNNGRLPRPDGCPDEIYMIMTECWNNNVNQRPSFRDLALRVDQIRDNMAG
T1 sequence (P23458 866-1154): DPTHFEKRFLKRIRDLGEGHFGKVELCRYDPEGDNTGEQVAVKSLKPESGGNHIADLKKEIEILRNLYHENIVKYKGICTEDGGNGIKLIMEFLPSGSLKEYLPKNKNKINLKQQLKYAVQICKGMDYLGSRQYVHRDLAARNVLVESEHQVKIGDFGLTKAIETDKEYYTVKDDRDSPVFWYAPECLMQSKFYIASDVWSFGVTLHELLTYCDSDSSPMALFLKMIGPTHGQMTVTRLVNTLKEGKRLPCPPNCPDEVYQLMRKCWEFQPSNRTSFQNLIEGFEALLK
T3 sequence (P52333 811-1124): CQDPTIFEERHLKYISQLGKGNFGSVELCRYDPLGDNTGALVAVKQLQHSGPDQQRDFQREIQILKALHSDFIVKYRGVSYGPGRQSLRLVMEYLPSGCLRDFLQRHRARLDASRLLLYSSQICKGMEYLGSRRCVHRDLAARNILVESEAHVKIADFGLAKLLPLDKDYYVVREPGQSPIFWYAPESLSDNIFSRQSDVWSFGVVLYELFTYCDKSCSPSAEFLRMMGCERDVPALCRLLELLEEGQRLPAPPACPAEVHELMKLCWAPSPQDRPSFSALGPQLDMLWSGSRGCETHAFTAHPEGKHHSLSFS

SMILES | IC50 (GST-JAK1(866-1154)) | IC50 (GST-JAK2(808-1132)) | IC50 (GST-JAK3(811-1124)) | IC50 (GST-TYK2(888-1187)) | IC50 [1]
CN1CCN(c2ccc(-c3cnc4cccc(-c5cc(F)c(CN6CCS(=O)(=O)CC6)c(F)c5)c4n3)cn2)CC1 [Example 108, 8-[4-(1,1-Dioxido-thiomorpholin-4-ylmethyl)-3,5-difluoro-phenyl]-2-[6-(4-methyl-piperazin-1-yl)-pyridin-3-yl]-quinoxaline] | 0.254 µM | 0.0245 µM | 2.4 µM | 0.417 µM | 0.15 µM
Cc1cc(-c2cccc3ncc(-c4cnn(CCCN5CCOCC5)c4)nc23)ccc1C(=O)N1CCOCC1 [Example 114, (2-Methyl-4-{3-[1-(3-morpholin-4-yl-propyl)-1H-pyrazol-4-yl]-quinoxalin-5-yl}-phenyl)-morpholin-4-yl-methanone] | 0.25 µM | 0.0115 µM | 1.65 µM | 0.345 µM | 6.38 µM
Fc1cc(-c2cccc3ncc(-c4cnn(C5CCOCC5)c4)nc23)cc(F)c1CN1CCOCC1 [Example 117, 8-(3,5-Difluoro-4-morpholin-4-ylmethyl-phenyl)-2-[1-(tetrahydro-pyran-4-yl)-1H-pyrazol-4-yl]-quinoxaline] | 0.0765 µM | < 0.003 µM | 1.03 µM | 0.125 µM | 0.06 µM
O=C1CN(Cc2c(F)cc(-c3cccc4ncc(-c5cnn(C6CCOCC6)c5)nc34)cc2F)CCN1 [Example 118, 4-(2,6-Difluoro-4-{3-[1-(tetrahydro-pyran-4-yl)-1H-pyrazol-4-yl]-quinoxalin-5-yl}-benzyl)-piperazin-2-one] | 0.47 µM | 0.025 µM | > 10 µM | 0.955 µM | 0.36 µM
O=C(c1c(F)cc(-c2cccc3ncc(-c4cnn(C5CCOCC5)c4)nc23)cc1F)N1CCOCC1 [Example 119, (2,6-Difluoro-4-{3-[1-(tetrahydro-pyran-4-yl)-1H-pyrazol-4-yl]-quinoxalin-5-yl}-phenyl)-morpholin-4-yl-methanone] | 0.25 µM | 0.00985 µM | 6.4 µM | 0.28 µM | 0.34 µM
COCCN1CCC(n2cc(-c3cnc4cccc(-c5cc(F)c(CN6CCOCC6)c(F)c5)c4n3)cn2)CC1 [Example 123, 8-(3,5-Difluoro-4-morpholin-4-ylmethyl-phenyl)-2-{1-[1-(2-methoxy-ethyl)-piperidin-4-yl]-1H-pyrazol-4-yl}-quinoxaline] | 0.135 µM | 0.005 µM | 1.95 µM | 0.17 µM | 0.18 µM

More lines, now with the values ahead:

IC50 (GST-JAK1(866-1154)) | IC50 (GST-JAK2(808-1132)) | IC50 (GST-JAK3(811-1124)) | IC50 (GST-TYK2(888-1187)) | IC50 [1] | SMILES
5.55 µM | 0.575 µM | > 10 µM | 9.3 µM | 1.59 µM | CN(C)CCN(C)C(=O)c1ccc(-c2cnc3cccc(-c4cc(F)c(CN5CCOCC5)c(F)c4)c3n2)cn1 [Example 110, 5-[8-(3,5-Difluoro-4-morpholin-4-ylmethyl-phenyl)-quinoxalin-2-yl]-pyridine-2-carboxylic acid (2-dimethylamino-ethyl)-methyl-amide]
0.92 µM | 0.105 µM | 9.3 µM | 1.7 µM | 1.23 µM | CN(C)CCN(C)C(=O)c1ccc(-c2cnc3cccc(-c4cc(F)c(CN5CCS(=O)(=O)CC5)c(F)c4)c3n2)cn1 [Example 111, 5-{8-[4-(1,1-Dioxido-thiomorpholin-4-ylmethyl)-3,5-difluoro-phenyl]-quinoxalin-2-yl}-pyridine-2-carboxylic acid (2-dimethylamino-ethyl)-methyl-amide]
5.35 µM | 0.32 µM | > 10 µM | > 10 µM | 13.6 µM | Cc1cc(-c2cnc3cccc(-c4cc(F)c(CN5CCOCC5)c(F)c4)c3n2)cnc1C(=O)N(C)CCN(C)C [Example 112, 5-[8-(3,5-Difluoro-4-morpholin-4-ylmethyl-phenyl)-quinoxalin-2-yl]-3-methyl-pyridine-2-carboxylic acid (2-dimethylamino-ethyl)-methyl-amide]
0.615 µM | 0.0285 µM | 3.3 µM | 1.15 µM | 1.94 µM | Cc1cc(-c2cnc3cccc(-c4cc(F)c(CN5CCS(=O)(=O)CC5)c(F)c4)c3n2)cnc1C(=O)N(C)CCN(C)C [Example 113, 5-{8-[4-(1,1-Dioxido-thiomorpholin-4-ylmethyl)-3,5-difluoro-phenyl]-quinoxalin-2-yl}-3-methyl-pyridine-2-carboxylic acid (2-dimethylamino-ethyl)-methyl-amide]
0.0725 µM | 0.0093 µM | 1.6 µM | 0.48 µM | 1.44 µM | COCCn1cc(-c2cnc3cccc(-c4cc(F)c(CN5CCOCC5)c(F)c4)c3n2)cn1 [Example 115, 8-(3,5-Difluoro-4-morpholin-4-ylmethyl-phenyl)-2-[1-(2-methoxy-ethyl)-1H-pyrazol-4-yl]-quinoxaline]
